ChEMBL document CHEMBL1201862, “PubChem BioAssay data set” (2004)
Activity calls are given as the source filed them.

Columns and labels:
[1] = molecular target: Heat shock protein HSP 90-alpha (Homo sapiens, UniProt P07900); assay type: functional, organism-based
[2] = molecular target: T1, Polyadenylate-binding protein 1 (Homo sapiens, UniProt P11940); test: PABP1 MLLE–PAM2 interaction inhibitors, dose response, miRNA deadenylation inhibitor project, biochemical, fluorescence polarization, Cy5-PAM2 peptide, secondary (AID 602260); assay type: functional; conditions: read-out: IC50_Mean
[3] = molecular target: T2, Streptokinase A (Streptococcus pyogenes serotype M1, UniProt P10520); test: S. pyogenes streptokinase expression inhibitors, potency, dose response, plasminogen activation absorbance, OD405 (AID 1914); assay type: functional, Streptococcus pyogenes M1 GAS;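 note: secreted streptokinase activity via plasminogen activation per viability signal from cell pellet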
T2 sequence (P10520 whole entry): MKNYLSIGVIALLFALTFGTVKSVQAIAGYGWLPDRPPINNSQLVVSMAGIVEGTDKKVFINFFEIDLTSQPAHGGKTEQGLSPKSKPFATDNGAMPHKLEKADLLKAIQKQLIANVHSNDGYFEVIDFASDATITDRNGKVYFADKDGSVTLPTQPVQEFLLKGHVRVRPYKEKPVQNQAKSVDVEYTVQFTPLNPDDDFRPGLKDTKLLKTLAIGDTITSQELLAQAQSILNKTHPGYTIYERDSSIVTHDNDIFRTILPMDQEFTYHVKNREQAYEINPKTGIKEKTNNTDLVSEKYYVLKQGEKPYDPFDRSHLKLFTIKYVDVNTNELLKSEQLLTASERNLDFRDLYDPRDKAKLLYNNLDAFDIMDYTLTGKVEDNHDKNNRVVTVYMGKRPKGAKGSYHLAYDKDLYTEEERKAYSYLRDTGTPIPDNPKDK

[4] = molecular target: T1, Polyadenylate-binding protein 1; test: PABP1 MLLE–PAM2 binding inhibitor potency, dose response, biochemical, fluorescence polarization, FITC-PAM2 peptide (AID 602259); assay type: functional; conditions: read-out: IC50_Mean
[5] = molecular target: T3, RNA-binding protein pos-1 (Caenorhabditis elegans, UniProt G5EF15); test: inhibitors of POS-1/mex-3 RNA binding, dose response, biochemical, fluorescence polarization (AID 1964);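 note: purified POS-1 fused to maltose binding protein made in E. coli; potency of compounds blocking POS-1 binding to fluorescent RNA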
T3 sequence (G5EF15 whole entry): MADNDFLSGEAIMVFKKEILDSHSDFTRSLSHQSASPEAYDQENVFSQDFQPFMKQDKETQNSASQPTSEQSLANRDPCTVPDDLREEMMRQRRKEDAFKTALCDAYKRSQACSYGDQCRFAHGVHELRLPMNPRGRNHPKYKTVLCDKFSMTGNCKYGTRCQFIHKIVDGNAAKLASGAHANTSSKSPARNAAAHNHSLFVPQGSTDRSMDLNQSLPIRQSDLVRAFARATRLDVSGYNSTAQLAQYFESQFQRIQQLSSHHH

[6] = molecular target: T4, Zinc finger protein mex-5 (Caenorhabditis elegans, UniProt Q9XUB2); test: MEX-5/TCR-2 RNA interaction inhibitors, dose response, biochemical, C. elegans, fluorescence polarization (AID 1960)
T4 sequence (Q9XUB2 whole entry): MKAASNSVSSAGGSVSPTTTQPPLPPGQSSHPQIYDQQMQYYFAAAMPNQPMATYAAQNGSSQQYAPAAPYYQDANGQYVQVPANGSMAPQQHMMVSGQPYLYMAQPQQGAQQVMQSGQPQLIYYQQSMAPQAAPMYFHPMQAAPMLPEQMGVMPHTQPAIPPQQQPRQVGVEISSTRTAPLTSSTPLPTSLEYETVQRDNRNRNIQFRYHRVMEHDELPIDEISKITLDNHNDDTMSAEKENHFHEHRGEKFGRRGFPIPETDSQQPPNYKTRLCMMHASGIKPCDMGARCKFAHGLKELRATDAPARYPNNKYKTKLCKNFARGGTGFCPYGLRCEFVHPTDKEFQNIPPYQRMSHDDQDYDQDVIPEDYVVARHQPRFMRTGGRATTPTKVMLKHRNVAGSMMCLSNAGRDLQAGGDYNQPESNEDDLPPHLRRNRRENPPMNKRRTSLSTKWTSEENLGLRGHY

[7] = molecular target: Nonstructural protein 1 (Influenza A virus, UniProt Q194T2); assay type: functional, Influenza A virus (A/California/07/2009(H1N1))
[8] = molecular target: Cytochrome P450 2C19 (Homo sapiens, UniProt P33261); test: Cytochrome panel assay with activity outcomes. Panel member name: p450-cyp2c19 Compounds with AC50 equal or less than 10 uM are considered active; assay type: functional; conditions: read-out: AC50
[9] = molecular target: Cytochrome P450 2C9 (Homo sapiens, UniProt P11712)
[10] = tested on: H9c2; test: cells; assay type: functional, cell-based; conditions: Rattus norvegicus, H9c2, Myocardium;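 note: confirmatory concentration-response retest of ultra-high-throughput screening hits for modulation of myocardial damage; cell death induced by hydrogen peroxide oxidative stress; compound pretreatment for 60 min then peroxide exposure for 2 h; potency is for protecting the cells against peroxide damage rather than for killing them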
[11] = molecular target: T5, Cytochrome P450 1A2 (Homo sapiens, UniProt P05177);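 note: PubChem cytochrome P450 panel assay, CYP1A2 panel member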
T5 sequence (P05177 whole entry): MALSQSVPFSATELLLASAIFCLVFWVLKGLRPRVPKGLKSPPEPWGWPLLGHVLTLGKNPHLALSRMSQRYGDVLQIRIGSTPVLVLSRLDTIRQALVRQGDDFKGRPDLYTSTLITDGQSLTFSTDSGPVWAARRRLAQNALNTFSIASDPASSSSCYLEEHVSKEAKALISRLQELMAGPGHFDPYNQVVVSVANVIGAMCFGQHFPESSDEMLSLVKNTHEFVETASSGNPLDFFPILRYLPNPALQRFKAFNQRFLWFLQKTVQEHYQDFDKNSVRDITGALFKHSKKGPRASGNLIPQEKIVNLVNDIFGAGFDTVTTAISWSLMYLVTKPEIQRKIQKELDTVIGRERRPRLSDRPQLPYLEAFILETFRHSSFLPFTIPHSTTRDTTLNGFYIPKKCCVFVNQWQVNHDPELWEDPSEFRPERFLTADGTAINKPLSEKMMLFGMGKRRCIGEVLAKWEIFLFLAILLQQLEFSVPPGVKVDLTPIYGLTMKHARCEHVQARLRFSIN

[12] = molecular target: T6, Corticotropin-releasing factor receptor 2/Corticotropin-releasing factor-binding protein (Homo sapiens, UniProt P24387+Q13324); test: Dose Response confirmation of uHTS hits for small molecule antagonists of the CRF-binding protein and CRF-R2 receptor complex.; assay type: functional; conditions: read-out: IC50_Mean
T6 sequence (Q13324 whole entry): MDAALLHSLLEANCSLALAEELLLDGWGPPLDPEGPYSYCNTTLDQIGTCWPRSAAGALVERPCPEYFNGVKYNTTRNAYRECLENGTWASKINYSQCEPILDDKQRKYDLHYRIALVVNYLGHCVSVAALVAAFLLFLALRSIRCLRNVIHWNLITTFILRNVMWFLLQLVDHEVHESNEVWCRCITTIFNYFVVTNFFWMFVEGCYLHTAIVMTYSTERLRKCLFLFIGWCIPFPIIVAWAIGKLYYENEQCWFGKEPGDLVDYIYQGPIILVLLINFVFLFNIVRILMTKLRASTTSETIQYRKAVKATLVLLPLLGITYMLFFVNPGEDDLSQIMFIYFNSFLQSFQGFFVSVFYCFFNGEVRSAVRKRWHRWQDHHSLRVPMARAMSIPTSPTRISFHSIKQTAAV
T6 sequence (P24387 whole entry): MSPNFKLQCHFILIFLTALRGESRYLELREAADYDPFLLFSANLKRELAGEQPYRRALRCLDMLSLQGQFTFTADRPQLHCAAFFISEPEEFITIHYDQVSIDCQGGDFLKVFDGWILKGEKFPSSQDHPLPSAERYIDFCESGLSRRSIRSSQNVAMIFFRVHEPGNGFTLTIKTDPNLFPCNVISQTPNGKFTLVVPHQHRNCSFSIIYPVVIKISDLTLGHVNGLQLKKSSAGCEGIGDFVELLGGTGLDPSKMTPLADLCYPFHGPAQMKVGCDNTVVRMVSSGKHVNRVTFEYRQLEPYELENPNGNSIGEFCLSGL

[13] = molecular target: T6, Corticotropin-releasing factor receptor 2/Corticotropin-releasing factor-binding protein; test: activators of CRF receptor 2 with binding protein – uHTS hits, confirmation (AID 602473); assay type: functional; conditions: read-out: EC50_Mean
[14] = molecular target: T7, Rac GTPase-activating protein 1 (Homo sapiens, UniProt Q9H0H5); test: MgcRacGAP GTPase-activating activity inhibitors, confirmation, biochemical, ADP Hunter fluorescence, primary and confirmatory (AID 624330); assay type: functional
T7 sequence (Q9H0H5 whole entry): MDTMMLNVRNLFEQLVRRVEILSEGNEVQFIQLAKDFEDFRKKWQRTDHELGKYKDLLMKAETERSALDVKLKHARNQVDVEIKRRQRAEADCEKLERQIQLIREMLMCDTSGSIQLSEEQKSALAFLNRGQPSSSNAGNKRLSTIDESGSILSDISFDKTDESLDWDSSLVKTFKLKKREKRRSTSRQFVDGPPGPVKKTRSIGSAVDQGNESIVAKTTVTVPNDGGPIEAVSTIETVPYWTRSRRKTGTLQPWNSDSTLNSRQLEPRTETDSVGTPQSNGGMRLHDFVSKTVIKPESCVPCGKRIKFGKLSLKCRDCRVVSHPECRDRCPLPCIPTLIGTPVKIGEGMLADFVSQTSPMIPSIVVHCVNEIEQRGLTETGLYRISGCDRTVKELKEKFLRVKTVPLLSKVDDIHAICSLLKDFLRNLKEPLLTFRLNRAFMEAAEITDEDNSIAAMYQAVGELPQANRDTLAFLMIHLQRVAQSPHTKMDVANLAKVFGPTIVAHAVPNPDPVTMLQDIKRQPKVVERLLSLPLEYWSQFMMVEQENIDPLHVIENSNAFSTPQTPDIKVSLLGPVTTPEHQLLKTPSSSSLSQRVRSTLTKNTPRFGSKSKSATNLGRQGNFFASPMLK

Sequence of Nonstructural protein 1 (Q194T2 whole entry): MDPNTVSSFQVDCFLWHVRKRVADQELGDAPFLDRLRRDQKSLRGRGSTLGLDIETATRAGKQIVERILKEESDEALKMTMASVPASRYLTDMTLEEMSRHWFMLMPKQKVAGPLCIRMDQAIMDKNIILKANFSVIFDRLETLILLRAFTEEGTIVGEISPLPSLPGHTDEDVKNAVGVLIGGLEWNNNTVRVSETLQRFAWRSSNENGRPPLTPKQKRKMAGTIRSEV
T1 sequence (P11940 whole entry): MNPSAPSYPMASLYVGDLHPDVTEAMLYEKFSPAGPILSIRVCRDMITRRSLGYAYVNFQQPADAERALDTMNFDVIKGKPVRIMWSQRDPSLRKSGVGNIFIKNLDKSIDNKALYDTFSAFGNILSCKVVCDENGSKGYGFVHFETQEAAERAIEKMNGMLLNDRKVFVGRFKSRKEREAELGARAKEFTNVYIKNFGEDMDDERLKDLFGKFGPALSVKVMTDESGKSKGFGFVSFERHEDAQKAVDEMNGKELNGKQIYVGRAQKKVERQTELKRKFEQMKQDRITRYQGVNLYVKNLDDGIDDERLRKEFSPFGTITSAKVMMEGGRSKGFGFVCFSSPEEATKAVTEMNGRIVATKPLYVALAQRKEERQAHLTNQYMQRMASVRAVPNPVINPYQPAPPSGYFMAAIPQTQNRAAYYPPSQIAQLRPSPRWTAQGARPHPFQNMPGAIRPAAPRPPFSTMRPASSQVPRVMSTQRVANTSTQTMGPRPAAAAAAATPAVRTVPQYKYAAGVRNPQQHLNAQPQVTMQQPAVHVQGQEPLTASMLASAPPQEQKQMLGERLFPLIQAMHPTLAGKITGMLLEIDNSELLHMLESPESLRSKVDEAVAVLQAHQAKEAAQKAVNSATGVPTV
Sequence of Cytochrome P450 2C19 (P33261 whole entry): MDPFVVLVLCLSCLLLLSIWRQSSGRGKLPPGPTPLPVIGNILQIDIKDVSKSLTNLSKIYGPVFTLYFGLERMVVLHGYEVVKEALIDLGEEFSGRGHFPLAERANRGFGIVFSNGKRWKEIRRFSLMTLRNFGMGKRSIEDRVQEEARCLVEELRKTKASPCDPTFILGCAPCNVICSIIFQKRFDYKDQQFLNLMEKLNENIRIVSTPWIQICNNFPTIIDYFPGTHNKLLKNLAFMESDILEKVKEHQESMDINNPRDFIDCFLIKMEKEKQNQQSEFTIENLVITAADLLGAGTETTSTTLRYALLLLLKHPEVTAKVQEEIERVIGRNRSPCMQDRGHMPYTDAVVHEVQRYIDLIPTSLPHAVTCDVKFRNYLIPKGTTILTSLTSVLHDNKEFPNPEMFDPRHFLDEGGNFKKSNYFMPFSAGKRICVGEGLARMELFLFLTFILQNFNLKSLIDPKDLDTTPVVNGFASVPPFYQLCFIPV
Sequence of Cytochrome P450 2C9 (P11712 whole entry): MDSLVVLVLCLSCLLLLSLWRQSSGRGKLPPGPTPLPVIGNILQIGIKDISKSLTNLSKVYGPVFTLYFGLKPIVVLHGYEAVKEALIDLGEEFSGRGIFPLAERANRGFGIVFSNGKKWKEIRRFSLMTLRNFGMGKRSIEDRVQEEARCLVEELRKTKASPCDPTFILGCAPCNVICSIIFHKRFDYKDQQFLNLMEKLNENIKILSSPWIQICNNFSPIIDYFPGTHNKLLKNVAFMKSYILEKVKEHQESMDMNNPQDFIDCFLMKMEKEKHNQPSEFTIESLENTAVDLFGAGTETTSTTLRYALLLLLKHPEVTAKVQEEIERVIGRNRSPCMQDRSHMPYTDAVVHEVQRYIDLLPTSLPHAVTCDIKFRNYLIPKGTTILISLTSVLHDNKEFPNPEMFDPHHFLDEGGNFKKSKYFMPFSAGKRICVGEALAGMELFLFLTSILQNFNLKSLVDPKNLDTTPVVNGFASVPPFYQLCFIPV

COc1ccc(N2CCN(c3c(S(=O)(=O)c4ccccc4)cnc4ccc(OC)cc34)CC2)cc1
AC50 [1]: 2.76 µM (active)

CCOc1ccc(-n2cc(-c3ccccc3)c3c(=S)[nH]cnc32)cc1
IC50 [2]: > 66 µM (inactive)
EC50 [3]: > 150 µM (not active)
IC50 [4]: > 66 µM (inactive)

O=C(NC(=S)Nc1ccc(CN2CCCCC2)cc1)c1ccco1
IC50 [2]: > 66 µM (inactive)
IC50 [4]: > 66 µM (inactive)

COc1cc([C@H](Cc2ccccc2)NC(C)=O)oc(=O)c1
EC50 [5]: 38.7 µM (active)
EC50 [6]: 27.9 µM (active)

c1csc(C2Nc3cccc4cccc(c34)N2)c1
IC50 [2]: > 66 µM (inactive)
IC50 [4]: > 66 µM (inactive)

COc1ccc2cc3cc(C(=O)N4CCN(Cc5ccc6c(c5)OCO6)CC4)oc3nc2c1
IC50 [7]: > 100 µM (active)

CCOC(=O)c1ccc(-c2ccc(/C=C(\C#N)C(=O)NCC3CCCO3)o2)cc1 (stereo unspecified)
AC50 [8]: 2.51 µM (inconclusive)
AC50 [9]: 5.62 µM (inconclusive)
IC50 [10]: > 79 µM (inactive)
AC50 [11]: 4.47 µM (inconclusive)

COc1cccc(OCCn2cc(C=O)c3ccccc32)c1
EC50 [5]: > 300 µM (not active)
EC50 [6]: > 300 µM (not active)

CCOC(=O)c1sc(-c2ccc(C(F)(F)F)cc2)nc1O
IC50 [12]: > 47.1 µM (inactive)
AC50 [1]: 3.14 µM (active)
EC50 [13]: 11.9 µM (active)

COc1ccc(S(=O)(=O)NCc2ccc3c(c2)cc(C)n3C)cc1
IC50 [2]: > 66 µM (inactive)
IC50 [4]: > 66 µM (inactive)
IC50 [7]: 66.3 µM (active)

COc1cc(CNC2CCCCC2OC)cc(OC)c1 (stereo unspecified)
IC50 [14]: 152 µM (active)

Oc1ccc(-c2csc(Nc3cccnc3)n2)cc1
IC50 [14]: 18.2 µM (active)

O=C1N=C(N2CCCCC2)S/C1=C/C1=Cc2ccccc2OC1
EC50 [5]: > 300 µM (not active)
EC50 [6]: > 300 µM (not active)

O=C(NC1CCCCCC1)C(=S)NCCc1ccccc1
IC50 [2]: > 66 µM (inactive)
IC50 [4]: > 66 µM (inactive)

Oc1ccc(-c2c(-c3ccsc3)sc3ccccc23)cc1
AC50 [1]: 3.3 µM (active)

O=S(=O)(/C=C/c1ccccc1)NC1CCCCCCC1
AC50 [1]: 24.7 µM (active)

CN(CC(=O)NCc1ccccn1)S(=O)(=O)c1ccc(Br)cc1
EC50 [5]: > 300 µM (not active)
EC50 [6]: > 300 µM (not active)

Oc1ccc(N2CCN(c3ccnc4cc(Cl)ccc34)CC2)cc1
IC50 [14]: 48.3 µM (active)

Cc1c(N=NC2=C(O)CCCC2=O)c(=O)n(-c2ccccc2)n1C
IC50 [7]: 2.9 µM (active)

COCCN1CCC(CNCc2c[nH]nc2-c2ccc(C)c(C)c2)C1 (stereo unspecified)
EC50 [5]: > 300 µM (not active)
EC50 [6]: > 300 µM (inconclusive)

CCOC(=O)c1ccccc1N1C(=O)CSC1=S
IC50 [2]: > 66 µM (inactive)
IC50 [4]: > 66 µM (inactive)

CCS(=O)(=O)c1ccc2oc(=O)c(/C=C(\O)c3ccc(Cl)cc3)nc2c1
IC50 [14]: 99.7 µM (active)

CCCCn1c(NC(=S)Nc2ccccc2)nc2ccccc21
IC50 [2]: > 66 µM (inactive)
IC50 [4]: > 66 µM (inactive)

O=C1CSC(Nc2ccc(O)cc2)=N1
IC50 [14]: 35.9 µM (active)

COc1cccc(CNC(=O)CSc2ccc(-c3ccccn3)nn2)c1
IC50 [7]: 20.6 µM (active)

COc1cc(/C=C/C(=O)OC(C)C(=O)Nc2c(C)n(C)n(-c3ccccc3)c2=O)ccc1O (stereo unspecified)
IC50 [14]: 61.4 µM (active)

COC(=O)c1ccc(-n2c(C)cc(/C=N/Nc3nc(C)cc(O)n3)c2C)cc1
EC50 [5]: > 300 µM (not active)
EC50 [6]: > 300 µM (not active)

O=C(NCc1ccncc1)C(=O)N/N=C/c1ccccn1
EC50 [5]: 86.1 µM (active)
EC50 [6]: 24.2 µM (active)

O=[N+]([O-])c1ccc(N/N=C2\CC3CC=CC23)c([N+](=O)[O-])c1 (stereo unspecified)
IC50 [7]: 35.3 µM (active)

CCOc1cc(/C=N/NC(=O)C(C)Sc2ccccn2)ccc1O (stereo unspecified)
IC50 [14]: 39.8 µM (active)
